Assay results reported in patent US5316919A, “Method of producing 2 KD to 10 KD peptides having no L-methionine residue” (priority 1992, dated 1994).
Where no end group is shown, it is not given here.

Tested on: male ICR mice
Experiment: Effects on the blood pressure (caudal vein blood pressure, noninvasive sphygmomanometer) after intravenous injection
Assay type: in vivo
Settings: 40 μg/kg by injection into the caudal vein, male ICR mice of 5 weeks of age
Experimental: Two of the compounds of the invention were each administered to male ICR mice of 5 weeks of age by injection into the caudal vein at a dose of 40 μg/kg. […]
In addition, the activity was of long duration. The peptides of the invention have therapeutic utility.

Substance | caudal vein blood pressure relative to physiological saline taken as 100% (5 min after administration) [%] | caudal vein blood pressure relative to physiological saline taken as 100% (10 min after administration) [%] | caudal vein blood pressure relative to physiological saline taken as 100% (15 min after administration) [%] | caudal vein blood pressure relative to physiological saline taken as 100% (20 min after administration) [%]
vasoactive intestinal polypeptide (HSDAVFTDNYTRLRKQMAVKKYLNSILN; ends and bridges not checked; UniProt P01282 125-152, looked up) [Naturally occurring VIP, reference compound] | 83.3 | 97.2 | 95.9 | 102.8
H-HSDAVFTDNYTRLRKQLAVKKYLNSILNGPEA-OH [Peptide of Reference Example 1, H-His-Ser-Asp-Ala-Val-Phe-Thr-Asp-Asn-Tyr-Thr-Arg-Leu-Arg-Lys-Gln-Leu-Ala- Val-Lys-Lys-Tyr-Leu-Asn-Ser-Ile-Leu-Asn-Gly-Pro-Glu-Ala-OH] | 71.1 | 66.4 | 74.9 | 77.9
H-HSDAVFTDNYTRLRKQLAVKKYLNSILNGP-OH [Peptide of Reference Example 3, H-His-Ser-Asp-Ala-Val-Phe-Thr-Asp-Asn-Tyr-Thr-Arg-Leu-Arg-Lys-Gln-Leu-Ala- Val-Lys-Lys-Tyr-Leu-Asn-Ser-Ile-Leu-Asn-Gly-Pro-OH] | 58.9 | 74.1 | 94.3 | 105.5
